Activity calls are given as the source filed them. The calls are words filed in the database; no cut-off is given here.
How the values were obtained:
[1] = target: T1, 5-hydroxytryptamine receptor 4 (Homo sapiens, UniProt Q13639); test: Agonist activity at human 5HT4C receptor expressed at 100 fold physiological-level in HEK293 cells assessed as cAMP accumulation; type: functional, cell-based
Homo sapiens = organism: Homo sapiens; test: Selectivity ratio of Ki for human 5HT3A receptor to Ki for human 5HT4C receptor
[2] = target: T1, 5-hydroxytryptamine receptor 4; test: Intrinsic activity at human 5HT4C receptor expressed at 100 fold physiological-level in HEK293 cells assessed as cAMP accumulation relative to 5HT; type: functional, cell-based
[3] = target: T1, 5-hydroxytryptamine receptor 4; test: biochemical
Description: Displacement of [3H]GR113808 from human recombinant 5HT4C receptor expressed in HEK293 cells

[4] = target: 5-hydroxytryptamine receptor 4 (Cavia porcellus, UniProt O70528); test: Agonist activity at 5HT4 receptor in guinea pig colon assessed as longitudinal muscle plexus contraction
[5] = target: T1, 5-hydroxytryptamine receptor 4; test: 5-HT4C receptor-mediated exchange of GDP for europium labeled GTP (pEC50)
hERG (KCNH2) = hERG (KCNH2) (Homo sapiens, UniProt Q12809); test: Inhibition of human ERG expressed in CHO cells at 3 uM; type: cell-based; details: CHO cells expressing human ERG
[6] = target: T1, 5-hydroxytryptamine receptor 4; test: Agonist activity at human 5HT4C receptor expressed in a cell line expressing receptor at 10 fold physiological-level assessed as cAMP accumulation; type: functional
[7] = target: T1, 5-hydroxytryptamine receptor 4; test: 5-HT4C receptor-mediated exchange of GDP for europium labeled GTP (intrinsic activity)
[8] = target: T1, 5-hydroxytryptamine receptor 4; test: Intrinsic activity at human 5HT4C receptor expressed in a cell line expressing receptor at 10 fold physiological-level assessed as cAMP accumulation relative to 5HT; type: functional
Cavia porcellus = test: Agonist activity at 5HT4 receptor in sc dosed guinea pig assessed as decrease in colonic transit time of carmine red dye after 60 mins relative to vehicle treated control; type: functional, organism-based
[9] = target: 5-hydroxytryptamine receptor 2B (Homo sapiens) (UniProt P41595); test: Inhibition of 5HT2B receptor at 10 uM
[10] = target: 5-hydroxytryptamine receptor 7 (Homo sapiens) (UniProt P34969); test: Inhibition of 5HT7 receptor at 10 uM
[11] = target: 5-hydroxytryptamine receptor 2A (Homo sapiens) (UniProt P28223); test: Inhibition of 5HT2A receptor at 10 uM
Rattus norvegicus [12] = test: 5-HT4 receptor-mediated esophageal relaxation in anesthetized rat (following i.v. administration) using digital sonomicrometry; type: functional; details: Sprague-Dawley; for ED50: iv
[13] = target: 5-hydroxytryptamine receptor 6 (Homo sapiens) (UniProt P50406); test: Inhibition of 5HT6 receptor at 10 uM
[14] = Permeability across human Caco2 cells; type: ADME, cell-based; details: Caco-2, read-out: Kp
[15] = AUC (0 to t) in Sprague-Dawley rat at 5 mg/kg, po; type: ADME, organism-based; design: dose 5 mg/kg, route oral; details: plasma
[16] = Half life in Sprague-Dawley rat at 5 mg/kg, po; type: ADME, organism-based; design: dose 5 mg/kg, route oral; details: in vivo
[17] = Oral bioavailability in Sprague-Dawley rat at 5 mg/kg; type: ADME, organism-based; details: in vivo
Rattus norvegicus [18] = test: 5-HT4 receptor-mediated esophageal relaxation in anesthetized rat (following intraduodenal administration) using digital sonomicrometry; type: functional, organism-based; details: Sprague-Dawley
[19] = target: 5-hydroxytryptamine receptor 1D (Homo sapiens) (UniProt P28221); test: Inhibition of 5HT1D receptor at 10 uM
[20] = Cmax in Sprague-Dawley rat at 5 mg/kg, po; type: ADME, organism-based; design: dose 5 mg/kg, route oral; details: in vivo
[21] = target: T2, 5-hydroxytryptamine receptor 3A (Homo sapiens) (UniProt P46098); test: Inhibition of 5HT3A receptor at 10 uM
T2 sequence (whole entry): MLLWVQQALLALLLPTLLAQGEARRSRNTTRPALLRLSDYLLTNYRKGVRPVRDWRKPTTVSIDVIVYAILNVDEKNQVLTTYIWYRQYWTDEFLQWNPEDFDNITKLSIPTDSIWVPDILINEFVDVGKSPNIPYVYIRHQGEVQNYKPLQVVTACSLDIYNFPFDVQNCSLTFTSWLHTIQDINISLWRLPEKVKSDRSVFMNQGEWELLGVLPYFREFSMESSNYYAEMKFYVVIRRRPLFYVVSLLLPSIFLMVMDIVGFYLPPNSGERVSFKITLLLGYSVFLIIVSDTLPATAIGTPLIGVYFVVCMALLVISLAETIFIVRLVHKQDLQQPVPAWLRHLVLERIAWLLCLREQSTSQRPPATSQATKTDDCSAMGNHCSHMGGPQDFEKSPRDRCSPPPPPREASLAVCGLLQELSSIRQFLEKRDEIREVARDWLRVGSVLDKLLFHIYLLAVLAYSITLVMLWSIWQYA

[22] = target: T3, 5-hydroxytryptamine receptor 2C (Homo sapiens) (UniProt P28335); test: Inhibition of 5HT2C receptor at 10 uM
T3 sequence (whole entry): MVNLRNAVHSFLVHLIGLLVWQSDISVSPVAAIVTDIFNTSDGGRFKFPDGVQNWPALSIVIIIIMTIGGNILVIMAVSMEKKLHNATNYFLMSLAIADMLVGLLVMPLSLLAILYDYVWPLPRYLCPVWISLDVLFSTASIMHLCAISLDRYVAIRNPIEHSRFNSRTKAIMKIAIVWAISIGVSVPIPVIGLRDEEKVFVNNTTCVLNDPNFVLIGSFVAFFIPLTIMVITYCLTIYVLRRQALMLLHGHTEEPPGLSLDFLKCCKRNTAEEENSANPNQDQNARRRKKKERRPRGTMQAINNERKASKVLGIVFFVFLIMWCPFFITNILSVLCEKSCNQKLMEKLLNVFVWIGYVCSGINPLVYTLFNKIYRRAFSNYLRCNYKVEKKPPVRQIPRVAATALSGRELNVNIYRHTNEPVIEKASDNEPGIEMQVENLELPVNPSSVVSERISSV

[23] = target: T4, 5-hydroxytryptamine receptor 1A (Homo sapiens) (UniProt P08908); test: Inhibition of 5HT1A receptor at 10 uM
T4 sequence (whole entry): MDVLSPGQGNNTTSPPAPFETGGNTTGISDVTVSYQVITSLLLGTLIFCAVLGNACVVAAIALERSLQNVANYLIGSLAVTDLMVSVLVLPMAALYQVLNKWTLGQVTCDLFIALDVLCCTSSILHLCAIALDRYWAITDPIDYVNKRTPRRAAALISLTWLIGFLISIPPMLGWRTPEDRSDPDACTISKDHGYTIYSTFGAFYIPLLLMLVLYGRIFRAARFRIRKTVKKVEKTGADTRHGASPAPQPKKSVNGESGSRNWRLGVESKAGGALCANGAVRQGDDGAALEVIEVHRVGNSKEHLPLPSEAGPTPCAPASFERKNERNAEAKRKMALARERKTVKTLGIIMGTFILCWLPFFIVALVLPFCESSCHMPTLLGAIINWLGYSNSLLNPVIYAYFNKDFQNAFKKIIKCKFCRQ

[24] = (§1) Half life in rat liver microsomes; type: ADME, Microsome; details: liver microsomes
[25] = target: 5-hydroxytryptamine receptor 1B (Homo sapiens) (UniProt P28222); test: Inhibition of 5HT1B receptor at 10 uM
[26] = target: 5-hydroxytryptamine receptor 5A (Homo sapiens) (UniProt P47898); test: Inhibition of 5HT5A receptor at 10 uM
Liver microsomes = test: as §1; type: ADME, Microsome; details: microsomes

T1 sequence (Q13639 whole entry): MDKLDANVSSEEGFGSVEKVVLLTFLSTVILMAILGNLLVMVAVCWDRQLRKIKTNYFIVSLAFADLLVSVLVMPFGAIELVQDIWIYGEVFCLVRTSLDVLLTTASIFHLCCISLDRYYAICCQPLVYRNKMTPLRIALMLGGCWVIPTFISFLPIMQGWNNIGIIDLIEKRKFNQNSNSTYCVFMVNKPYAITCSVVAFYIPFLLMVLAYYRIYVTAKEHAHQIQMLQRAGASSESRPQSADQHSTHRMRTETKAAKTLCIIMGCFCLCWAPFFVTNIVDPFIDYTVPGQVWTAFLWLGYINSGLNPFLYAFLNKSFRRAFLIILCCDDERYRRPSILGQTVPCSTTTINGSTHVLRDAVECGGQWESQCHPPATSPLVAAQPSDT
Sequence of hERG (KCNH2) (Q12809 whole entry): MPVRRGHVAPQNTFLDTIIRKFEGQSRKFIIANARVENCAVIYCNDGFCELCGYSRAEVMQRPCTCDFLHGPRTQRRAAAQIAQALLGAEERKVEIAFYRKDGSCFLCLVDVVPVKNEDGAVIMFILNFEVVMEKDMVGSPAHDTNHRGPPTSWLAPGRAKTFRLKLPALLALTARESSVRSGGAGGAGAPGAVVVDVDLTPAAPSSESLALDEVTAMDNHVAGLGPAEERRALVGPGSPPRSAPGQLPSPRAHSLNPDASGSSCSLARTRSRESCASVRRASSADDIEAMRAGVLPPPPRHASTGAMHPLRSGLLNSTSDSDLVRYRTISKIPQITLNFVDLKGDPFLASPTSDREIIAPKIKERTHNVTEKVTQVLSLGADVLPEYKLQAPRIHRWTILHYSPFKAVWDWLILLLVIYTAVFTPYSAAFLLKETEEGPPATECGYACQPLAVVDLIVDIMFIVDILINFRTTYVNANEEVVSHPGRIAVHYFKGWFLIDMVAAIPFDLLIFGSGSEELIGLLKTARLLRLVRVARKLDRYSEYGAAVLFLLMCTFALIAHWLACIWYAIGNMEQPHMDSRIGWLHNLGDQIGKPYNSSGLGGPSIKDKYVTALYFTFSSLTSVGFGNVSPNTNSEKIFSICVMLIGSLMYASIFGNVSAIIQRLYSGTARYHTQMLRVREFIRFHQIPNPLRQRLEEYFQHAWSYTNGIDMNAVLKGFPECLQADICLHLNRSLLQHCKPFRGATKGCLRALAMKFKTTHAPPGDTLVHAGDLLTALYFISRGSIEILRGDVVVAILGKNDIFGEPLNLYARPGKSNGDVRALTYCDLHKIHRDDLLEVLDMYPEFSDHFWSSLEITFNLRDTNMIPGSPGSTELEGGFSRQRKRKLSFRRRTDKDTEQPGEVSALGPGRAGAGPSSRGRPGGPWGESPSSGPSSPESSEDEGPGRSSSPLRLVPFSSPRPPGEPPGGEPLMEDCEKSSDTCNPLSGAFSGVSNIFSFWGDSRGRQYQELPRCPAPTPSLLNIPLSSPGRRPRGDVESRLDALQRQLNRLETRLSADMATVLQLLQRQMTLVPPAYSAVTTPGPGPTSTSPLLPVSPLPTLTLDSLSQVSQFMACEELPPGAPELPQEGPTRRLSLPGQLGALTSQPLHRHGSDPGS
Sequence of 5-hydroxytryptamine receptor 4 (Cavia porcellus, UniProt O70528) (O70528 whole entry): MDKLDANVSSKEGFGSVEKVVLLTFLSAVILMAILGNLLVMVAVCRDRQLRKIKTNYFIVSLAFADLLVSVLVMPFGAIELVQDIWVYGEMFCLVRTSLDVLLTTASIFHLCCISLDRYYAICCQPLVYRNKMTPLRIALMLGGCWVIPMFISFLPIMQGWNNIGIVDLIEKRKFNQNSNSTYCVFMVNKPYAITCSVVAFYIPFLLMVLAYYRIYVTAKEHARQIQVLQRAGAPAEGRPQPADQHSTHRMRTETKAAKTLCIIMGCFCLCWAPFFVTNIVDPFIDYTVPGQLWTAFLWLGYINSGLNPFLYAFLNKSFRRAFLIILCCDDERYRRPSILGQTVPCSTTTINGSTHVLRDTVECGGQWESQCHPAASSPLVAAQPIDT
Sequence of 5-hydroxytryptamine receptor 5A (Homo sapiens) (P47898 whole entry): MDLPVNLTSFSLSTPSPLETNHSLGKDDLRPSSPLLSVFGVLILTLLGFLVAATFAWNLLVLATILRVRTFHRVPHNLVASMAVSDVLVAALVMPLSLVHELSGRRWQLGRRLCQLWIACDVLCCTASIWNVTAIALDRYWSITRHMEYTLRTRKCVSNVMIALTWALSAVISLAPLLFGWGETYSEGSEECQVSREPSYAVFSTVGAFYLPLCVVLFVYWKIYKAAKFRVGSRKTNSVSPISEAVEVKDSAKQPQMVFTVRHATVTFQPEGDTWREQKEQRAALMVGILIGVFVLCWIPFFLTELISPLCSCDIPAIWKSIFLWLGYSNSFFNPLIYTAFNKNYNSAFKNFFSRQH
Sequence of 5-hydroxytryptamine receptor 2B (Homo sapiens) (P41595 whole entry): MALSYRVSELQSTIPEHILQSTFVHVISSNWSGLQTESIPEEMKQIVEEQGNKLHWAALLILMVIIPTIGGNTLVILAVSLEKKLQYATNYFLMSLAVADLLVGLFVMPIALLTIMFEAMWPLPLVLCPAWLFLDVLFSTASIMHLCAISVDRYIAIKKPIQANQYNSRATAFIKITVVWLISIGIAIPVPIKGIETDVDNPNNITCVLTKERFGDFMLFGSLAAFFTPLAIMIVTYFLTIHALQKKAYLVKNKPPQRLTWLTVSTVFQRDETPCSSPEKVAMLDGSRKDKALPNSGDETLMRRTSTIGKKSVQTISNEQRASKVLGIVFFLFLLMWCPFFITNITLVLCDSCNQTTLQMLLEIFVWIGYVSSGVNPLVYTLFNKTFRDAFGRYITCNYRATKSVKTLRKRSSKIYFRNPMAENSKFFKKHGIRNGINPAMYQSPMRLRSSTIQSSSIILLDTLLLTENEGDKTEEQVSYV
Sequence of 5-hydroxytryptamine receptor 2A (Homo sapiens) (P28223 whole entry): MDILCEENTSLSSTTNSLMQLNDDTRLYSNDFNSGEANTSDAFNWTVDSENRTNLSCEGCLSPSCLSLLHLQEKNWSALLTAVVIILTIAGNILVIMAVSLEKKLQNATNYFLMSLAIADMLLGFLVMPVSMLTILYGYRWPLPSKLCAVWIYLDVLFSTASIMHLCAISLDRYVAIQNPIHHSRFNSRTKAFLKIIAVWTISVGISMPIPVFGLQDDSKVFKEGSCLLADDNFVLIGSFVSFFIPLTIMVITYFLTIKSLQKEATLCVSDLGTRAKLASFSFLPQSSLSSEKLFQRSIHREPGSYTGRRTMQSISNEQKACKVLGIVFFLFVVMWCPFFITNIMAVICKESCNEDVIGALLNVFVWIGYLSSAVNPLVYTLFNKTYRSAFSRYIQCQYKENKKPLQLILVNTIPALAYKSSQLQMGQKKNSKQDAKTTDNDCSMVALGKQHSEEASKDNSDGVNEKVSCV
Sequence of 5-hydroxytryptamine receptor 1D (Homo sapiens) (P28221 whole entry): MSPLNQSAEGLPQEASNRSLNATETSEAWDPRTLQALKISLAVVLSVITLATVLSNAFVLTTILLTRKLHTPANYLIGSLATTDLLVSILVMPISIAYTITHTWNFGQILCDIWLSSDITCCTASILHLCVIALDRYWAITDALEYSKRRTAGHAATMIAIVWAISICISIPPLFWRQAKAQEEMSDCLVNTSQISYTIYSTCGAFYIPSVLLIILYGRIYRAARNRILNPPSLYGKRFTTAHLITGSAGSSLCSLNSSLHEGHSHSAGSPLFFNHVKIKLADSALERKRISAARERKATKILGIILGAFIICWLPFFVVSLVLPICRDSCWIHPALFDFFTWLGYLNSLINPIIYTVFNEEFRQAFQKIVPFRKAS
Sequence of 5-hydroxytryptamine receptor 6 (Homo sapiens) (P50406 whole entry): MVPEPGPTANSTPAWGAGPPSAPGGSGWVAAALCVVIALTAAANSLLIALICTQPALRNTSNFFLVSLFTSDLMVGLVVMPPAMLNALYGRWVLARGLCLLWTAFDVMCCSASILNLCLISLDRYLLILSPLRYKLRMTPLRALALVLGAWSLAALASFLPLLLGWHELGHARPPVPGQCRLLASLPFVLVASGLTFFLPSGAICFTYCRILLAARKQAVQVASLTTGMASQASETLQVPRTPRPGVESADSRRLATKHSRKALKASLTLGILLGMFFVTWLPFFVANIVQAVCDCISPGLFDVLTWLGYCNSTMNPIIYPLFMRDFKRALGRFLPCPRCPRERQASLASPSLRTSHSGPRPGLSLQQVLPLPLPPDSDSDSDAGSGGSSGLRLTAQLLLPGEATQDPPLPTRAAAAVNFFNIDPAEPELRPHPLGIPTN
Sequence of 5-hydroxytryptamine receptor 7 (Homo sapiens) (P34969 whole entry): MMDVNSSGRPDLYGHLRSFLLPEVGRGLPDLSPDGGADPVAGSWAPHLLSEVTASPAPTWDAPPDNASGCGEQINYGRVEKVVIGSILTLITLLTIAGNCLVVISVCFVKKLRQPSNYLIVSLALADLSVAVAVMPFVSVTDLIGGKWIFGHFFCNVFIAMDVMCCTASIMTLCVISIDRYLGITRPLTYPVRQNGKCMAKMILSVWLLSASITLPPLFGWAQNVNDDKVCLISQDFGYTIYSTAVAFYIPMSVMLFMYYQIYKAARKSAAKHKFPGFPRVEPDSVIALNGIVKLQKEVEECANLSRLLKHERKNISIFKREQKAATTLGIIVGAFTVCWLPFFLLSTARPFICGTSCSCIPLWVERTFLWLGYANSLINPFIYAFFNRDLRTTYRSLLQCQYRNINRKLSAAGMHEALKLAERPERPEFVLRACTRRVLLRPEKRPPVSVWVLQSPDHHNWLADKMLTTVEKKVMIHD
Sequence of 5-hydroxytryptamine receptor 1B (Homo sapiens) (P28222 whole entry): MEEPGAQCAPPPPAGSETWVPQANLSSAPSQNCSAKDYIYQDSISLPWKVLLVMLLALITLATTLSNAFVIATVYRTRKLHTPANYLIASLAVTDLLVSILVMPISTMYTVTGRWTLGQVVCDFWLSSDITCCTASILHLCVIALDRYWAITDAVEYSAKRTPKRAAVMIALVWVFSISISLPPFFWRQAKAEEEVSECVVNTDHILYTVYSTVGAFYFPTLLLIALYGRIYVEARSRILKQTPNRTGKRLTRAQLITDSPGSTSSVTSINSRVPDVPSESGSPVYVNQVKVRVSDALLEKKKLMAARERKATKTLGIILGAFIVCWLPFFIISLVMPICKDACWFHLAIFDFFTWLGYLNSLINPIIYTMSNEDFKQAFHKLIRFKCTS

SMILES	EC50 [1] [nM]	Ratio Ki (Homo sapiens)	Intrinsic activity [2] [%]	Ki [3] [nM]	EC50 [5] [nM]	inhibition at 3 µM (hERG (KCNH2)) [%]	Intrinsic activity [7] [%]	Intrinsic activity [8] [%]	Papp [14] [×10⁻⁶ cm/s]	half-life [24] [h]	also measured
CC(C)n1nc(C(=O)N[C@H]2C[C@H]3CC[C@@H](C2)N3CCCCCCN2CCN(S(C)(=O)=O)CC2)c2ccccc21	12.6	3.6	75	2.51	–	–	–	–	–	–	–
CCCCCNC(=N)N/N=C/c1c[nH]c2ccc(OC)cc12 [TEGASEROD]	1	580	115	–	15.8	33	71	99	–	–	EC50 [4]: 6.31 nM; pEC50 [6]: 8.7; Activity (Cavia porcellus): inactive
CC(=O)N1CCN(CCN2[C@@H]3CC[C@H]2C[C@@H](NC(=O)c2nn(C(C)C)c4ccccc24)C3)CC1	2.51	980	83	10	6.31	9	57	53	31	> 1.5	inhibition [9]: < 50%; inhibition [10]: < 50%; inhibition [11]: < 50%; Activity (Rattus norvegicus [12]): Dose-dependent effect; ED50 (Rattus norvegicus [12]): 0.0378 mg/kg; EC50 [4]: 10 nM; inhibition [13]: < 50%; AUC(0-t) [15]: 730 ng·h/mL; half-life [16]: 3.2 h; EC50 [6]: 10 nM; bioavailability [17]: > 100%; Activity (Rattus norvegicus [18]): Dose-dependent effect; inhibition [19]: < 50%; Cmax [20]: 254 ng/mL; inhibition [21]: < 50%; inhibition [22]: < 50%; inhibition [23]: < 50%; inhibition [25]: < 50%; Activity (Cavia porcellus): Active; inhibition [26]: < 50%
CC(C)n1nc(C(=O)N[C@H]2C[C@H]3CC[C@@H](C2)N3CC(O)CN2CCC(CNS(C)(=O)=O)CC2)c2ccccc21 (stereo not given in full)	0.631	19000	93	2.51	–	–	–	–	1	> 1.5	–
CC(C)n1nc(C(=O)N[C@H]2C[C@H]3CC[C@@H](C2)N3C[C@@H](O)CN2CCN(S(C)(=O)=O)CC2)c2ccccc21	0.398	23000	86	2.51	–	7	–	–	19	> 1.5	AUC(0-t) [15]: 240 ng·h/mL; half-life [16]: 7.4 h; bioavailability [17]: 36%; Cmax [20]: 35 ng/mL
CC(C)n1c(=O)c(C(=O)N[C@H]2C[C@H]3CC[C@@H](C2)N3C[C@@H](O)CN2CCN(S(C)(=O)=O)CC2)cc2ccccc21	–	7400	–	–	3.98	–	> 100	> 100	–	–	ED50 (Rattus norvegicus [12]): 0.142 mg/kg; EC50 [6]: 2 nM
COc1cc(N)c(Cl)cc1C(=O)N[C@H]1CCN(CCCOc2ccc(F)cc2)C[C@H]1OC (relative stereo) [REL-CISAPRIDE]	–	–	117	–	–	–	–	–	–	–	t1/2 (Liver microsomes): 0.783 h
CC(C)N(C)CCCCCCN1[C@@H]2CC[C@H]1C[C@@H](NC(=O)c1nn(C(C)C)c3ccccc13)C2	5.01	23	92	1	–	–	–	–	–	–	–
CC(C)n1nc(C(=O)N[C@H]2C[C@H]3CC[C@@H](C2)N3C[C@H](O)CN2CCN(S(C)(=O)=O)CC2)c2ccccc21	0.794	240	94	7.94	–	7	–	–	18	> 1.5	–
